Test results published in ChEMBL document CHEMBL1159364, “Inhibition of [3H]-LSD binding to 5-HT7 receptors by flavonoids from Scutellaria lateriflora” (J Nat Prod, 2003).

Target: 5-hydroxytryptamine receptor 7 (Homo sapiens, UniProt P34969)
Assay: Displacement of [3H]LSD from human 5HT7 receptor expressed in CHO cells
Format: cell-based

Sequence of 5-hydroxytryptamine receptor 7 (P34969 whole entry): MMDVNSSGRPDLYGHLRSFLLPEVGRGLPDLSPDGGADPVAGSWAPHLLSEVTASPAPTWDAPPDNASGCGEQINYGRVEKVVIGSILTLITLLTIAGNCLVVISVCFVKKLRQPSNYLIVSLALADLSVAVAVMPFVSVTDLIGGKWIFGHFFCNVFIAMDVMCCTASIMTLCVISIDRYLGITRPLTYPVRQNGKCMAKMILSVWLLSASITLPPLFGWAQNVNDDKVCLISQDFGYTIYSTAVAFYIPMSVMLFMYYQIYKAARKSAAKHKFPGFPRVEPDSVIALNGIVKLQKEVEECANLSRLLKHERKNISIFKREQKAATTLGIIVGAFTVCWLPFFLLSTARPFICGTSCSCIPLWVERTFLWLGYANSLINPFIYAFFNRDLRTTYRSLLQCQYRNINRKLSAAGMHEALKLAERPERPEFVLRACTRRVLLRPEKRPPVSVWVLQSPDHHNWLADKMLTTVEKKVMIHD

`O=c1cc(-c2ccccc2)oc2cc(O)c(O)c(O)c12` [BAICALEIN] and `COc1c(O)cc(O)c2c(=O)cc(-c3ccccc3)oc12` [WOGONIN] cannot be ordered by IC50: greater than 350 µM for the first, greater than 350 µM for the second.

Going from `O=C(O)[C@H]1O[C@@H](Oc2cc3oc(-c4ccccc4)cc(=O)c3c(O)c2O)[C@H](O)[C@@H](O)[C@@H]1O` [BAICALIN] to `O=C(O)[C@H]1O[C@@H](Oc2cc3oc(-c4ccccc4O)cc(=O)c3c(O)c2O)[C@H](O)[C@@H](O)[C@@H]1O` [IKONNIKOSIDE I], the IC50 falls from greater than 200 µM to 135 µM.

Compared with `O=C1C[C@@H](c2ccccc2)Oc2cc(O[C@@H]3O[C@H](C(=O)O)[C@@H](O)[C@H](O)[C@H]3O)c(O)c(O)c21` [DIHYDROBAICALIN], `O=C(O)[C@H]1O[C@@H](Oc2cc3oc(-c4ccc(O)cc4)cc(=O)c3c(O)c2O)[C@H](O)[C@@H](O)[C@@H]1O` [SCUTELLARIN] is 2.8-fold lower in IC50: 179 µM for the first, 63.4 µM for the second.
